US5968751A, “Method for detecting the presence of protein C antibody in a fluid sample” (The Scripps Research Institute, priority 1997, dated 1999)
pIC50: −log10 of the molar value. Read-outs that look alike come from different tables or passages of the source. No end group written: not given here.

Assays:
Format in all cases: biochemical
Factor Xa = target: T1, Factor Xa (Homo sapiens, UniProt P00742); experiment: Factor Xa clotting activity in NHP without added APC (Factor Xa-1 Stage clotting assay); details: for pIC50: read-out: 50% inhibition of Factor Xa clotting activity
T1 construct: purchased Enzyme Research Laboratories, Southbend, Ind
Description: FIG. 1 illustrates factor Xa clotting activity in the presence of PC311-325. The assay was performed as described in Example 5a6). Solid circles with solid lines depict factor Xa activity of 0.15 nM factor Xa in the presence of PC311-325 and solid triangles with dashed lines depict factor Xa activity in the presence of the control peptide.
FIG. 2 illustrates factor Xa clotting activity in the presence of PC142-155. The assay was performed as described in Example 5a6). Solid circles with solid lines depict factor Xa activity of 0.15 nM factor Xa in NHP in the presence of PC142-155 and solid triangles with dashed lines depict factor Xa activity in the presence of the scrambled peptide.
To determine the effect of the APC-inhibiting peptides, PC311-325 and PC142-155, on the amidolytic activity of Factor Xa, amidolytic assays as described for APC in Example 5a3 were performed using 0.15 nM Factor Xa in the presence of increasing amounts of peptide. Peptide PC311-325 ranged in concentration from 0 to 100 μM whereas peptide PC142-155 ranged in concentration from 0 to 50 μM.
For the assay, 100 μl of 0.15 nM factor Xa, prepared in Example 5a5) were admixed with separate aliquots of either peptide prepared in TBS-BSA at pH 7.4 containing 0.02% NaN3 and 2 mM CaCl2 to form APC-peptide admixtures. After maintenance of the admixtures for 30 minutes at 37° C., 50 μl of 2.4 mM S-2222 in the same buffer were admixed to initiate the amidolytic reaction. The hydrolysis of the substrate was measured as described before.
The Factor Xa-1 Stage assay was conducted as described in Example 5a6). In that assay, the IC50 for peptides PT557-571. PT463-478, PT473-487, PT481-495, X404-418, X415-429 and X329-344 were 50, >500, 25, >500, 50, 115, and 500, respectively.

thrombin [1] = target: T2, thrombin (Homo sapiens, UniProt P00734); experiment: thrombin amidolytic activity towards chromogenic substrates
thrombin [2] = target: T2, thrombin; experiment: clotting of purified fibrinogen by thrombin
prothrombinase = prothrombinase assay with purified proteins; details: for inhibition of prothrombinase activity in the absence of Factor Va: up to 200 μM PC311-325, up to 250 μM PC142-155
Description: FIG. 3 illustrates prothrombinase activity in the presence of PC311-325. The assay was performed using 1 nM factor Xa, 0.4 nM factor Va, 1.2 μM prothrombin and […] factor Xa in the absence of factor Va in TBS-BSA, 2.5 mM CaCl2, pH 7.4. Unless otherwise specified all prothrombinase assays were carried out in the presence of 50 μM phospholipid vesicles. In all cases solid symbols indicate prothrombinase activity in the presence of factor Va whereas open symbols indicate prothrombinase activity in the […] of factor Va. Solid circles with solid lines indicate prothrombinase activity (with factor Va) in the presence of PC311-325, solid squares with solid lines indicate prothrombinase activity (with factor Va) in the presence of PC311-325 but in the absence of phospholipid vesicles and solid triangles with dashed lines indicate prothrombinase activity (with factor Va) in the presence of the control peptide. Open circles with solid lines denote prothrombinase activity (without factor Va) in the presence of PC311-325 and open triangles with dashed lines denote prothrombinase activity (without factor Va) in the presence of the control peptide.
FIG. 4 illustrates prothrombinase activity in the presence of PC142-155. The assay was performed using 1 nM factor Xa, 0.4 nM factor Va, 1.2 μM prothrombin and 2.5 nM factor Xa in the absence of factor Va in TSB-BSA, 2.5 mM CaCl2, 50 μM phospholipid vesicles, pH 7.4. In all cases solid symbols indicate prothrombinase activity in the […] of factor Va. Solid circles with solid lines indicate prothrombinase activity (with factor Va) in the presence of PC142-155 and solid triangles with dashed lines indicate prothrombinase activity (with factor Va) in the presence of the scrambled peptide. Open circles with solid lines denote prothrombinase activity (without factor Va) in the presence of PC142-155 and open triangles with dashed lines denote prothrombinase activity (without factor Va) in the presence of the scrambled peptide.
Factor Va was determined via its cofactor activity in the activation of prothrombin by Factor Xa. Amounts of Factor Xa (Enzyme Research Lab.), phospholipid vesicles and prothrombin (purified as described by Stenflo, J. Biol. Chem., 25:355-363, (1976) from a barium citrate plasma precipitate purified by DEAE-sephadex chromatography) present in the assay were such that the rate of prothrombin activation was linearly dependent on factor Va and constant over the time course of the experiment. The molar concentration of Factor Xa was determined by active site titration as described by Chase et al., Biochem. Biophys. Res. Commun., 29:508-514 (1967). The molecular weights and extinction coefficients (E280 nm/mg/ml) used in the calculation of protein concentrations were as follows: prothrombin, 72,000 and 1.44; APC, 62,000 and 1.45; and Factor X, 65,300 and 1.16.
In a typical experiment, Factor Va was assayed as follows. An aliquot of the solution containing Va was admixed to a solution containing prothrombin, phospholipids and calcium in individual wells of a 96-well microtiter plate. Prothrombin activation was initiated with the mixture of Factor Xa to the Va-containing wells to form a reaction admixture. Final concentrations of reagents in the reaction mixture were the following: 1.2 μM prothrombin, 1 nM Xa, 0-0.4 nM Va, 50 μM phospholipid-vesicles (phosphatidylserine 20%/phosphatidylcholine 80%; M/M), in 0.05 M Tris-HCl at pH 7.4 containing 0.1 M NaCl, 0.5% BSA and 2.0 mM CaCl2. The reaction was maintained at 22° C. At one minute time intervals from initiation of the reaction, 20 μl aliquots of the reaction admixture were withdrawn and admixed to wells of an ELISA plate containing 80 μl TBS-BSA and 10 mM EDTA at pH 8.0 resulting in the quenching of the prothrombinase reaction. […]

[3] = NHP, 0.15 nM factor Xa, no added APC

T1 sequence (P00742 41-179 limits assumed): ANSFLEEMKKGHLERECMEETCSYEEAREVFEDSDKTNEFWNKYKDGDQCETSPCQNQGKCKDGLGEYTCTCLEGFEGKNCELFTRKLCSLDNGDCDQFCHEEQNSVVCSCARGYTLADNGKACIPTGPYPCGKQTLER
T1 sequence (P00742 235-488 limits assumed): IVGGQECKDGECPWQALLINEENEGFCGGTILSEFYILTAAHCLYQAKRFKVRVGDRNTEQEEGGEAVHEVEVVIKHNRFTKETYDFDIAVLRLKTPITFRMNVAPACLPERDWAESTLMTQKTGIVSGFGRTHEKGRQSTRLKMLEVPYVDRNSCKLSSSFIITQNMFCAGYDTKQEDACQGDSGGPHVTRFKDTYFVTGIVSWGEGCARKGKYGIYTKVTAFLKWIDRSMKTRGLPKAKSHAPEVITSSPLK

Compound | pIC50 (Factor Xa; [3]) | effect on thrombin amidolytic activity towards chromogenic substrates (thrombin [1]) | effect on the clotting of purified fibrinogen by thrombin (thrombin [2]) | pIC50 (prothrombinase; presence of Factor Va, read-out: 50% inhibition of prothrombinase activity) | inhibition of prothrombinase activity in the absence of Factor Va (prothrombinase) | pIC50 (Factor Xa; clotting assays in plasma) | inhibition of Factor Xa activity (Factor Xa; 50 μM peptide, NHP) [%] | inhibition of Factor Xa activity (Factor Xa; 50 μM peptide, NHP, listed as scrambled control peptide) [%] | inhibition of prothrombinase activity in the presence of Factor Va (prothrombinase) | inhibition of prothrombinase activity (prothrombinase; 100 μM peptide, presence of Factor Va) [%] | inhibition of Factor Xa activity (Factor Xa; 100 μM peptide, NHP) [%]
KRNRTFVLNFIKIPV-NH2 [PC311-325, Lys-Arg-Asn-Arg-Thr-Phe-Val-Leu-Asn-Phe-Ile-Lys-Ile-Pro-Val] | 5.15 | no significant effect | no effect | 5.10 | very little if any significant inhibition | – | – | – | – | – | –
CSCC[C@H](NC(=O)[C@H](CCCNC(=N)N)NC(=O)[C@H](CCCCN)NC(=O)[C@H](Cc1c[nH]c2ccccc12)NC(=O)[C@@H]1CCCN1C(=O)[C@H](CCCNC(=N)N)NC(=O)CN)C(=O)N[C@@H](CCC(=O)O)C(=O)N[C@@H](CCCCN)C(=O)N[C@@H](CCCCN)C(=O)N[C@@H](CCCNC(=N)N)C(=O)N[C@@H](CO)C(=O)N[C@@H](Cc1c[nH]cn1)C(=O)N[C@@H](CC(C)C)C(=O)N[C@@H](CS)C(N)=O [PC142-155, Gly-Arg-Pro-Trp-Lys-Arg-Met-Glu-Lys-Lys-Arg-Ser-His-Leu] | 5.00 | – | – | – | – | 5.30 | – | – | – | – | –
MHKLREGKWRPKSR [Scrambled peptide, reference compound] | – | no significant effect | no effect | – | – | – | 40 | 37 | small amount of inhibition | 40 | –
VKFTIRVFNPRNLKI [Control Peptide, reference compound] | – | – | – | – | very little if any significant inhibition | – | – | – | very little if any significant inhibition | – | 30
